{"source": "patent US11274136B2", "about": "“Acylated glucagon analogue” (Zealand Pharma A/S, priority 2015, dated 2022)", "key": {"[1]": {"experiment": "Pharmacokinetic parameters after intravenous administration to rats", "type": "in vivo", "conditions": "Han/Wistar, rat, plasma, male Wistar rats, 20 nmol/kg", "method": "Pharmacokinetic parameters of the test compounds were determined after intravenous administration to Han/Wistar rats. The acylated GLP-1 analogue semaglutide was also tested for comparison purposes.\nMale Wistar rats were obtained from Charles River (Germany) weighing approximately 180 to 210 g at time of arrival at the test facility. Rats were caged in European standard rat cages type IV with light cycle of 12-hour dark and 12-hour light. During the study rats were housed in standard rat cages type III. Both diet Altromin 1324 (Altromin, Germany) and water was administered ad libitum during the whole experimental period. The animals were housed in the test facility for at least 4 days in order to assure proper acclimatization.\nThe compounds were first dissolved in 0.1% aqueous ammonia to a nominal concentration of 2 mg/ml, and then diluted to the desired dosing strength (10 μM) in sterile PBS containing 25 mM phosphate buffer, pH 7.4. Intravenous injections corresponding to 20 nmol/kg were given via a lateral tail vein.\nBlood samples (200 μl) were collected from the periorbital plexus at time points 0.08, 0.25, 0.5, 1, 2, 4, 8, 24, 32 and 48 h post dosing into K3EDTA tubes and centrifuged for 5 minutes at 4° C. within 20 minutes of sampling. Plasma samples (>100 μl) were transferred to 96-well PCR plates, immediately frozen and kept at −20′C until analysed for plasma concentration for the respective GLP-1-glucagon compound using LC-MS/MS. Individual plasma concentration-time profiles were analysed by a non-compartmental approach using ToxKin™ version 3.2 (Unilog IT Services), and the resulting pharmacokinetic parameters were determined."}, "[2]": {"experiment": "Oral glucose tolerance test (OGTT) in mice", "type": "in vivo", "conditions": "male C57BL6/J mice, 30 nmol/kg subcutaneous, blood glucose AUC 0-120 min", "method": "Effects of the test compounds on glycemic control were determined by an oral glucose tolerance test (OGTT) in 7-8 weeks old male C57BL6/J mice (obtained from Charles River Laboratories, Germany). Animals were housed in groups in individually ventilated cages (Tecniplast green line) with a 12-hour light cycle. They had ad libitum excess to a standard rodent diet (Provimi Kliba 3438) and water. The animals were housed in the test facility for at least one week prior to the OGTT. All experimental protocols concerning the use of laboratory animals were reviewed by a federal Ethics Committee and approved by governmental authorities.\nThe compounds were first dissolved in 0.1% aqueous ammonia to a nominal concentration of 2 mg/ml, and then diluted to the desired dosing strength in sterile PBS containing 25 mM phosphate buffer, pH 7.4. Compounds were administered in the morning by subcutaneous injection at a dose of 30 nmol/kg and a volume of 5 ml/kg. Control animals received a vehicle injection only. The GLP-1 analogue liraglutide was tested for comparison purposes. Group size was 5 animals per group.\nThe OGTT was performed 24 h or 48 h after compound administration. Animals were fasted for 10 h before the OGTT but still had ad libitum excess to water. After overnight fasting, a baseline blood sample (0 min) was obtained by tail bleed and blood glucose was measured with a glucometer. […]"}, "[3]": {"molecular_target": "T1, human glucagon-like peptide 1 receptor (GLP-1R) (Homo sapiens, UniProt P43220)", "T1 construct": "expressed in transfected cells", "T1 sequence (P43220 24-463)": "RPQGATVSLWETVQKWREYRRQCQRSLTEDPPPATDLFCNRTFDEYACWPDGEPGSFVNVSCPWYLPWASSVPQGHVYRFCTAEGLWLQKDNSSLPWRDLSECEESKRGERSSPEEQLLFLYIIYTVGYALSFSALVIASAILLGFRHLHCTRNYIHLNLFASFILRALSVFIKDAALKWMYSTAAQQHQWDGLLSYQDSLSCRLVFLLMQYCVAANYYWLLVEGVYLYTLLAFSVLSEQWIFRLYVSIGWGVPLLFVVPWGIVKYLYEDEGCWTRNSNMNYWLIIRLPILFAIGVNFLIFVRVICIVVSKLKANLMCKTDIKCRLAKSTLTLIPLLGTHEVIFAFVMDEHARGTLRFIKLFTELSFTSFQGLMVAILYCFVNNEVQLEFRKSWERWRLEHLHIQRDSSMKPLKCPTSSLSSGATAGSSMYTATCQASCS", "experiment": "GLP-1 receptor efficacy assay (cAMP AlphaScreen, CHO cells)", "type": "cell-based", "conditions": "EC50[GLP-1R]/EC50[Glucagon-R], human receptors in CHO-K1", "source_text": "The cDNA encoding either the human glucagon receptor (Glucagon-R) (primary accession number P47871) or the human glucagon-like peptide 1 receptor (GLP-1R) (primary accession number P43220) were synthesized and cloned into a mammalian expression vector containing a Zeocin resistance marker.\nThe mammalian expression vectors encoding the Glucagon-R or the GLP-1-R were transfected into Chinese hamster ovary (CHO) cells by the Attractene method. Stably expressing clones were obtained by Zeocin selection (250 μg/mL) upon limited dilution of cells resistant to the selection pressure. Glucagon-R and GLP-1-R cell clones expressing were picked, propagated and tested in the Glucagon-R and GLP-1-R efficacy assays as described below. […]\nCHO cells expressing the human Glucagon-R, or human GLP-1-R were seeded 24 hours prior to the assay at 5000 cells per well in 384-well microtiter plates in culture in 50 μl growth medium. […] After two hours of incubation at room temperature in the dark, the cAMP content was determined applying the AlphaScreen™ cAMP Functional Assay Kit from Perkin-Elmer according to manufacturer instructions. EC50 and relative efficacies compared to reference compounds (glucagon and GLP-1) were calculated applying computer aided curve fitting. The GLP-1/glucagon ratio is calculated as defined earlier."}}}
{"smiles": "CC[C@H](C)[C@H](NC(=O)[C@H](Cc1ccccc1)NC(=O)[C@H](CC(=O)O)NC(=O)[C@H](CCCCN)NC(=O)[C@H](C)NC(=O)[C@H](C)NC(=O)[C@H](CCCNC(=N)N)NC(=O)[C@H](CCC(=O)O)NC(=O)[C@H](CC(=O)O)NC(=O)[C@H](CC(C)C)NC(=O)[C@H](Cc1ccc(O)cc1)NC(=O)[C@H](CCCCN)NC(=O)[C@H](CO)NC(=O)[C@H](Cc1ccc(O)cc1)NC(=O)[C@H](CC(=O)O)NC(=O)[C@H](CO)NC(=O)[C@@H](NC(=O)[C@H](Cc1ccccc1)NC(=O)[C@@H](NC(=O)CNC(=O)[C@H](CCC(N)=O)NC(=O)C(C)(C)NC(=O)[C@@H](N)Cc1c[nH]cn1)[C@@H](C)O)[C@@H](C)O)C(=O)N[C@@H](CCC(=O)O)C(=O)N[C@@H](Cc1c[nH]c2ccccc12)C(=O)N[C@@H](CC(C)C)C(=O)N[C@@H](CCC(=O)O)C(=O)N[C@@H](CCCCNC(=O)CNC(=O)CNC(=O)[C@H](CO)NC(=O)CNC(=O)[C@H](CO)NC(=O)CNC(=O)CC[C@H](NC(=O)CCCCCCCCCCCCCCCCC(=O)O)C(=O)O)C(=O)N[C@@H](C)C(N)=O", "note": "[Compound 1]", "values": [{"measurement": "clearance", "setting": "[1]", "value": 5.4, "unit": "mL/h/kg"}, {"measurement": "MRT", "setting": "[1]; read-out: Mean Residence Time", "value": 19.2, "unit": "h"}, {"measurement": "half-life", "setting": "[1]; read-out: Terminal half life (converted)", "value": 15.2, "unit": "h"}, {"measurement": "OGTT AUC 30 nmol/kg 24 h", "setting": "[2]; OGTT 24 h after administration", "value": 56, "unit": "% CTL"}, {"measurement": "OGTT AUC 30 nmol/kg 48 h", "setting": "[2]; OGTT 48 h after administration", "value": 74, "unit": "% CTL"}, {"measurement": "Ratio GLP-1/Glucagon", "setting": "[3]", "value": 0.13}]}
